Reference: patent US20260097106A1, “AVIRULENT LIVE BACTERIAL VACCINES CURED OF PLASMIDS CONTAINING ANTIMICROBIAL RESISTANCE GENES” (Drs. Koehnk & Feldman, LLP, priority 2022, published 2026)
Read-outs that look alike come from different tables or passages of the source.

Tests used:
[1] = test system: F18 Cured vaccine (MS060520HM-PCISRAF18); assay: Antibiotic sensitivity (Int/MIC) at Iowa State University; type: cell-based, E. coli; details: for MIC: F18 Cured vaccine; for Antibiotic resistance of cured cells (in words): cured MS060520HM-PCISRAF18 cells over MS112101HM-competent cells
Protocol: (§1) The antibiotic sensitivity of Edema Vac F18 cells cured of plasmids that contain AMR genes (MS060520HM-PCISRAF18) was performed at Iowa State University (ISU) (Accession: 2020076670) with comparison to MS112101HM-competent cells (see Tables 4 and 5).

[2] = test system: F18 Pre-Cured cells (MS112101HM-competent); assay: as above; type: cell-based, E. coli; details: Table 4, E. COLH
Protocol: as §1

[3] = test system: K88 Pre-Cured cells (ECMS091703HM-competent); assay: as above; type: cell-based, E. coli; details: Table 7, E. COS
Protocol: (§2) The antibiotic sensitivity of Entero Vac K88 cells cured of plasmids that contain AMR genes (MS-K88-030321HM-PC2BSRAK88) was performed at Iowa State University (ISU) with comparison to ECMS091703HM-competent cells.

[4] = test system: K88 Cured vaccine (MS-K88-030321HM-PC2BSRAK88); assay: as above; type: cell-based, E. coli; details: for MIC: Table 7, E. COS, K88 Cured vaccine; for Antibiotic sensitivity of cured cells (in words): cured MS-K88-030321HM-PC2BSRAK88 cells compared with ECMS091703HM-competent cells
Protocol: as §2

[5] = test system: MS112101HM-SR (Edema Vac F18 cells cured of plasmids that contain AMR genes); assay: AMR disc testing on Mueller Hinton agar plates; type: cell-based, E. coli; details: for Ring measurement (radius, mm): antibiotic disc, Mueller Hinton plates, MS112101HM-SR; for Resistance of the strain to the antibiotic (in words): disc test, MS112101HM-SR compared with MS112101HM-competent
Protocol: (§3) AMR testing was performed comparing MS112101HM—SR, MS112101HM-AMR5, and MS112101HM-competent cells cultured on Mueller Hinton agar plates using Sulfatrim (SXT), Tetracycline (TE 30), Neomycin (NE 30), Sulfathiazine (ST 0.25), and Gentamicin (GM 10) discs.

[6] = test system: MS112101HM-competent (competent Edema Vac F18 cells); assay: AMR disc testing on Mueller Hinton agar plates; type: cell-based, E. coli; details: antibiotic disc
Protocol: as §3

[7] = test system: MS112101HM-AMR5 (Edema Vac F18 transformed with AMR5 plasmid); assay: AMR disc testing on Mueller Hinton agar plates; type: cell-based, E. coli; details: for Ring measurement (radius, mm): antibiotic disc, Mueller Hinton plates
Protocol: as §3

[8] = test system: ECMS091703HM-SR (Entero Vac K88 cells cured of plasmids that contain AMR genes); assay: AMR disc testing on Mueller Hinton agar plates; type: cell-based, E. coli
Protocol: AMR testing was performed comparing ECMS091703HM-SR and ECMS091703HM-competent cells cultured on Mueller Hinton agar plates using Neomycin (NE 30) and Sulfathiazine (ST 0.25) discs. A master plate of ECMS091703HM-SR was produced as follows: subculturing a colony of ECMS091703HM-SR from LB agar containing 5% sucrose on new LB agar containing 5% sucrose, incubating overnight at 37° C., and storing sealed at 2-8° C.

[9] = test system: Edema Vac F18 strain of E. coli vaccine; details: TSB media, overnight 37° C.
Protocol: (§4) Testing for resistance of the live avirulent E. coli strains, Entero Vac K88 and Edema Vac F18, to sodium chlorite was performed by evaluating the minimum inhibitory concentration of sodium chlorite as follows: Serial dilutions of sodium chlorite were prepared from a 100 mM stock solution using sterile TSB media and filter sterilized through 0.22 μm filter. Serially diluted tubes (5 ml each) were inoculated with either Entero Vac K88 or Edema Vac F18 strains of E. coli vaccine by adding 20 μl of 100 dose size of either Entero Vac K88 or Edema Vac F18 vaccine rehydrated in 5 ml TSB media. Positive controls are inoculated TSB media only, negative controls are uninoculated TSB media. All tubes were incubated overnight at 37° C. and turbidity was visualized the following day. Results of the MIC tests are disclosed in Table 1.

[10] = test system: Entero Vac K88 strain of E. coli vaccine; details: TSB media, overnight 37° C.
Protocol: as §4

Row | Compound | MIC ([1]; Table 4, E. COLH) | MIC ([1]; Table 5, E. COS) | MIC [2] | MIC [3] | MIC [4] | Antibiotic resistance of cured cells (in words) [1] | further results
1 | CN1C[C@@H]2C[C@H]1CN2c1cc2c(cc1F)c(=O)c(C(=O)O)cn2C1CC1 [Danofloxacin] | NI/<=0.1200 | NI/<=0.1200 | NI/<=0.1200 | NI/<=0.1200 | NI/<=0.1200 |  | 
2 | CS(=O)(=O)c1ccc([C@@H](O)[C@@H](CF)NC(=O)C(Cl)Cl)cc1 [Florfenicol] |  |  |  |  |  | loss of antibiotic resistance | Antibiotic sensitivity of cured cells (in words) [4]: more sensitive
3 | CCCN1C[C@H](C)[C@@H](O)[C@](C)(O)[C@@H](CC)OC(=O)[C@H](C)[C@@H](O[C@H]2C[C@@](C)(OC)[C@@H](O)[C@H](C)O2)[C@H](C)[C@@H](O[C@@H]2O[C@H](C)C[C@H](N(C)C)[C@H]2O)[C@](C)(O)C[C@H]1C [Gamithromycin] | NI/4.0000 ^ | NI/8.0000 ^ | NI/4.0000 ^ | NI/>8.0000 | NI/8.0000 ^ |  | 
4 | CN[C@@H]1[C@H](O)[C@H](NC)[C@H]2O[C@@]3(O)C(=O)C[C@@H](C)O[C@H]3O[C@@H]2[C@H]1O [Spectinomycin] | NI/16.0000 | NI/<=8.0000 | NI/>64.0000 | NI/>64.0000 | NI/<=8.0000 |  | 
5 | COc1cc(NS(=O)(=O)c2ccc(N)cc2)nc(OC)n1 [Sulfadimethoxine] |  |  |  |  |  | loss of antibiotic resistance | Antibiotic sensitivity of cured cells (in words) [4]: more sensitive
6 | CN(C)[C@@H]1C(O)=C(C(N)=O)C(=O)[C@@]2(O)C(O)=C3C(=O)c4c(O)cccc4[C@@](C)(O)[C@H]3C[C@@H]12 [Tetracycline] |  |  |  |  |  |  | Ring measurement (radius, mm) [5]: 0 mm; Ring measurement (radius, mm) [6]: 0 mm; Ring measurement (radius, mm) [7]: 0 mm
7 | C=C[C@]1(C)C[C@@H](OC(=O)CSCCN(CC)CC)[C@]2(C)[C@H](C)CC[C@]3(CCC(=O)[C@H]32)[C@@H](C)[C@@H]1O [Tiamulin] |  |  |  |  |  | retained resistance | 
8 | CC[C@H]1OC(=O)C[C@@H](O)[C@H](C)[C@@H](O[C@@H]2O[C@H](C)[C@@H](O)[C@H](N(C)C)[C@H]2O)[C@@H](CCN2CCCCC2)C[C@@H](C)C(=O)/C=C/C(C)=C/[C@@H]1CN1CCCCC1 [Tildipirosin] | NI/4.0000 ^ | NI/8.0000 ^ | NI/4.0000 ^ | NI/8.0000 ^ | NI/8.0000 ^ |  | 
9 | CC[C@H]1OC(=O)C[C@@H](O)[C@H](C)[C@@H](O[C@@H]2O[C@H](C)[C@@H](O)[C@H](N(C)C)[C@H]2O)[C@@H](CCN2C[C@H](C)C[C@H](C)C2)C[C@@H](C)C(=O)/C=C/C(C)=C/[C@@H]1CO[C@@H]1O[C@H](C)[C@@H](O)[C@@H](OC)[C@H]1OC [Tilmicosin] |  |  |  |  |  | retained resistance | 
10 | CCCNC[C@]1(O)[C@H](C)O[C@@H](O[C@H]2[C@H](C)[C@@H](O[C@@H]3O[C@H](C)C[C@H](N(C)C)[C@H]3O)[C@](C)(O)C[C@@H](C)CN[C@H](C)[C@@H](O)[C@](C)(O)[C@@H](CC)OC(=O)[C@@H]2C)C[C@@]1(C)OC [Tulathromycin] | NI/<=8.0000 | NI/<=8.0000 | NI/<=8.0000 | NI/32.0000 ^ | NI/<=8.0000 |  | 
11 | CC[C@H]1OC(=O)C[C@@H](O)[C@H](C)[C@@H](O[C@@H]2O[C@H](C)[C@@H](O[C@H]3C[C@@](C)(O)[C@@H](O)[C@H](C)O3)[C@H](N(C)C)[C@H]2O)[C@@H](CC=O)C[C@@H](C)C(=O)/C=C/C(C)=C/[C@@H]1CO[C@@H]1O[C@H](C)[C@@H](O)[C@@H](OC)[C@H]1OC [Tylosin (Tartrate/Base), Tylosin] | NI/>32.0000^ | NI/>32.0000 | NI/>32.0000 | NI/>32.0000 | NI/>32.0000 |  | 
12 | Gentamicin |  |  |  |  |  | loss of antibiotic resistance | Ring measurement (radius, mm) [5]: 11 mm; Resistance of the strain to the antibiotic (in words) [5]: less resistance; Ring measurement (radius, mm) [6]: 4 mm; Ring measurement (radius, mm) [7]: 11 mm
13 | Neomycin |  |  |  |  |  |  | Ring measurement (radius, mm) [5]: 8 mm; Resistance of the strain to the antibiotic (in words) [5]: less resistance; Ring measurement (radius, mm) [6]: 7 mm; Ring measurement (radius, mm) [7]: 11 mm; Resistance of the strain to the antibiotic (in words) ([7]; disc test): retained resistance; Ring measurement (radius, mm) ([8]; antibiotic disc, Mueller Hinton plates, ECMS091703HM-SR): 34 mm; Resistance of the strain to the antibiotic (in words) ([8]; disc test, ECMS091703HM-SR compared with ECMS091703HM-competent): less resistance; Antibiotic sensitivity of cured cells (in words) [4]: more sensitive
14 | Penicillin |  |  |  |  |  | retained resistance | 
15 | Sodium Chlorite [NaClO2] |  |  |  |  |  |  | Turbidity ([9]; NaClO2 0.03125 mM): Pos; Turbidity ([9]; NaClO2 0.0625 mM): Pos; Turbidity ([9]; NaClO2 0.125 mM): Neg; Turbidity ([9]; NaClO2 0.25 mM): Neg; Turbidity ([9]; NaClO2 0.5 mM): Neg; Turbidity ([9]; NaClO2 1 mM): Neg; Turbidity ([9]; NaClO2 10 mM): Neg; Turbidity ([10]; NaClO2 0.03125 mM): Pos; Turbidity ([10]; NaClO2 0.0625 mM): Pos; Turbidity ([10]; NaClO2 0.125 mM): Neg; Turbidity ([10]; NaClO2 0.25 mM): Neg; Turbidity ([10]; NaClO2 0.5 mM): Neg; Turbidity ([10]; NaClO2 1 mM): Neg; Turbidity ([10]; NaClO2 10 mM): Neg
16 | Sulfatrim [SXT] |  |  |  |  |  |  | Ring measurement (radius, mm) [5]: 16 mm; Resistance of the strain to the antibiotic (in words) [5]: less resistance; Ring measurement (radius, mm) [6]: 11 mm; Ring measurement (radius, mm) [7]: 17 mm
17 | Trimethoprim/Sulphamethoxazole | NI/<=2.0000 | NI/<=2.0000 | NI/<=2.0000 | NI/<=2.0000 | NI/<=2.0000 |  | 
